Assay results as given in ChEMBL document CHEMBL1157538, “Discovery of a potent, selective, and orally bioavailable c-Met inhibitor: 1-(2-hydroxy-2-methylpropyl)-N-(5-(7-methoxyquinolin-4-yloxy)pyridin-2-yl)-5-methyl-3-oxo-2-phenyl-2,3-dihydro-1H-pyrazole-4-carboxamide (AMG 458)” (J Med Chem, 2008).

Tests used:
[1] = molecular target: T1, Hepatocyte growth factor receptor (Homo sapiens, UniProt P08581); assay: Inhibition of human c-Met by HTRF assay
Mus musculus [2] = assay: Toxicity in human U87MG cells xenografted CD1 NU/NU mouse assessed as effect on body weight at 30 mg/kg BID for 14 days; format: organism-based, U-87MG ATCC; set-up: dose 30 mg/kg; settings: in vivo, 336 h
[3] = Volume of distribution at steady state in Beagle dog at 1 mg/kg, iv or 10 mg/kg, po; format: ADME, organism-based, Canis lupus familiaris; settings: in vivo, read-out: Vdss
[4] = Intrinsic clearance in BALB/c mouse liver microsome; format: ADME; settings: liver microsomes
[5] = Clearance in Sprague-Dawley rat at 1 mg/kg, iv or 10 mg/kg, po; format: ADME, organism-based; settings: in vivo
[6] = Intrinsic clearance in human liver microsome; format: ADME; settings: liver microsomes
[7] = Inhibition of RON
[8] = Intrinsic clearance in Sprague-Dawley rat liver microsome; format: ADME; settings: liver microsomes
[9] = Inhibition of Aurora1
[10] = Intrinsic clearance in Beagle dog liver microsome; format: ADME, Canis lupus familiaris; settings: liver microsomes
[11] = molecular target: T1, Hepatocyte growth factor receptor; assay: Inhibition of HGF-mediated c-Met phosphorylation in human PC3 cells; format: cell-based, PC-3
[12] = Terminal half life in BALB/c mouse; format: ADME, organism-based; settings: in vivo, read-out: beta t1/2
[13] = molecular target: T2, Receptor-type tyrosine-protein kinase FLT3 (Homo sapiens, UniProt P36888); assay: Inhibition of FLT3
T2 sequence (P36888 whole entry): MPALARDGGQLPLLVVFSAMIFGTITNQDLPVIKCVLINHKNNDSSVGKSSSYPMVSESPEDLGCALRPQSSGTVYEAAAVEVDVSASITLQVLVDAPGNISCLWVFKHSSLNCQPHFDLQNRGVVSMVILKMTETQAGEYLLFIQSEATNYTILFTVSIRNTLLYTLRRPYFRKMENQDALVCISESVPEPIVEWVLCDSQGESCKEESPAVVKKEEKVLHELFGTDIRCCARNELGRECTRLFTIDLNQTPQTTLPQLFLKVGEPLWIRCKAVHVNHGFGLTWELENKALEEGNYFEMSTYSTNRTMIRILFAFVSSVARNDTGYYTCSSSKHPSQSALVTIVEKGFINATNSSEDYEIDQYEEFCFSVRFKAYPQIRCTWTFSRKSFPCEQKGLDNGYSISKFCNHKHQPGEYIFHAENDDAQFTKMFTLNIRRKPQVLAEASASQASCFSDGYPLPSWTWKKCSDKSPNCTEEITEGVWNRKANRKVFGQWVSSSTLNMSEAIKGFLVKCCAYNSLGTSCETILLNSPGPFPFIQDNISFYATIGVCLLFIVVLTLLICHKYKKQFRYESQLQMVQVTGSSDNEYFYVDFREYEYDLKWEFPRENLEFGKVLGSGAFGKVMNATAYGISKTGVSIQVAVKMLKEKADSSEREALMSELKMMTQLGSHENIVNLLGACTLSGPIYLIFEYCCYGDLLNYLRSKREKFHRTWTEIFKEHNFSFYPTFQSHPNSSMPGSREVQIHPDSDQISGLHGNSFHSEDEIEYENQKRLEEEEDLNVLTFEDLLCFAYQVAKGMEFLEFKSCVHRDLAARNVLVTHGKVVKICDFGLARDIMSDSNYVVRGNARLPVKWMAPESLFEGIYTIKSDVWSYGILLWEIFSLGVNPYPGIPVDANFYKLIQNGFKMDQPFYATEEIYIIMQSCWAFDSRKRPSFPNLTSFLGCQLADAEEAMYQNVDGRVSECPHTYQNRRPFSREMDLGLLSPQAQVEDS

[14] = molecular target: Tyrosine-protein kinase CSK (Homo sapiens, UniProt P41240); assay: Inhibition of CSK
[15] = Half life in cynomolgus monkey at 1 mg/kg, iv or 10 mg/kg, po; format: ADME, organism-based, Macaca fascicularis; settings: in vivo
[16] = molecular target: T3, Hepatocyte growth factor receptor (Mus musculus, UniProt P16056); assay: Inhibition of mouse c-Met by HTRF assay
[17] = molecular target: Hepatocyte growth factor receptor (Homo sapiens, UniProt P08581, Y1230H); assay: Inhibition c-Met Y1230H mutant by HTRF assay
[18] = Oral bioavailability in BALB/c mouse at 10 mg/kg; format: ADME, organism-based; settings: in vivo
[19] = molecular target: Macrophage colony-stimulating factor 1 receptor (Homo sapiens, UniProt P07333)
[20] = Oral bioavailability in Sprague-Dawley rat at 10 mg/kg; format: ADME, organism-based; settings: in vivo
[21] = Clearance in cynomolgus monkey at 1 mg/kg, iv or 10 mg/kg, po; format: ADME, organism-based, Macaca fascicularis; settings: in vivo
[22] = Half life in Sprague-Dawley rat at 1 mg/kg, iv or 10 mg/kg, po; format: ADME, organism-based; settings: in vivo
Mus musculus [23] = assay: Toxicity in human U87MG cells xenografted CD1 NU/NU mouse assessed as effect on body weight at 30 mg/kg and 100 mg/kg, qd for 14 days; format: organism-based, U-87MG ATCC; settings: in vivo, 336 h
[24] = Drug level in po dosed BALB/c mouse plasma after 6 hrs; format: ADME, organism-based
[25] = molecular target: Tyrosine-protein kinase Lyn (Homo sapiens, UniProt P07948); assay: Inhibition of Lyn
[26] = molecular target: T3, Hepatocyte growth factor receptor; assay: Inhibition of HGF-mediated c-Met phosphorylation in mouse CT26 cells; format: cell-based
[27] = molecular target: T4, Cytoplasmic tyrosine-protein kinase BMX (Homo sapiens, UniProt P51813); assay: Inhibition of BMX
T4 sequence (P51813 whole entry): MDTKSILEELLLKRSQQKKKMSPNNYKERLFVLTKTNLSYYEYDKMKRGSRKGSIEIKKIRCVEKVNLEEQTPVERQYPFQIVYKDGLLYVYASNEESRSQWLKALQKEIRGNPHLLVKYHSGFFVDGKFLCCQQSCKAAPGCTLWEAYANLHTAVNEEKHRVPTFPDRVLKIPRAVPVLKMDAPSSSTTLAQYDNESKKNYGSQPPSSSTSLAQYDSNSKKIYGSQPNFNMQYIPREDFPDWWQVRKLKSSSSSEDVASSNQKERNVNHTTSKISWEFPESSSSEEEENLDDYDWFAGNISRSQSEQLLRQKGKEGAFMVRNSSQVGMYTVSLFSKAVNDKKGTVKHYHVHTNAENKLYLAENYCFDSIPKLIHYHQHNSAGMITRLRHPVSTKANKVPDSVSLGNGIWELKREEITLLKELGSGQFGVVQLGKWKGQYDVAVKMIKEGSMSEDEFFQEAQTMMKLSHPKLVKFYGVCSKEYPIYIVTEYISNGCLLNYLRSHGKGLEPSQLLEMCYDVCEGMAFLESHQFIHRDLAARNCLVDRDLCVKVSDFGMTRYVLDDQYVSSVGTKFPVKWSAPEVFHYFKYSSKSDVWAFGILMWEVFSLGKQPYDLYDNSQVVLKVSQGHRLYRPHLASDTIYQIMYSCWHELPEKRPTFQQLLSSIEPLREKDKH

**Q.** For `COc1ccc2c(Oc3ccc(NC(=O)c4c(C)n(CC(C)(C)O)n(-c5ccccc5)c4=O)nc3)ccnc2c1`, which Ki [1] is on record?
**A.** 1.2 nM

**Q.** What about the Activity (Mus musculus [2]) of the same molecule?
**A.** Non-toxic

**Q.** And the Vd [3]?
**A.** 0.75 L/kg

**Q.** And the microsomal CLint [4]?
**A.** < 5 µL/min/mg

**Q.** And the clearance [5]?
**A.** 12.2 mL/min/kg

**Q.** What about the microsomal CLint [6] of the same molecule?
**A.** 18 µL/min/mg

**Q.** And the IC50 [7]?
**A.** 8 nM

**Q.** What about the microsomal CLint [8] of the same molecule?
**A.** 62 µL/min/mg

**Q.** What about the IC50 [9] of the same molecule?
**A.** 280 nM

**Q.** And the microsomal CLint [10]?
**A.** 8 µL/min/mg

**Q.** What about the IC50 [11] of the same molecule?
**A.** 60 nM

**Q.** What about the half-life [12] of the same molecule?
**A.** < 2 h

**Q.** And the IC50 [13]?
**A.** 391 nM

**Q.** What about the IC50 [14] of the same molecule?
**A.** 165 nM

**Q.** What about the half-life [15] of the same molecule?
**A.** 5.7 h

**Q.** And the Ki [16]?
**A.** 2 nM

**Q.** And the Ki [17]?
**A.** 4.5 nM

**Q.** What about the bioavailability [18] of the same molecule?
**A.** 100%

**Q.** And the IC50 [19]?
**A.** 238 nM

**Q.** What about the bioavailability [20] of the same molecule?
**A.** 100%

**Q.** What about the clearance [21] of the same molecule?
**A.** 1.67 mL/min/kg

**Q.** And the half-life [22]?
**A.** 1 h

**Q.** What about the Activity (Mus musculus [23]) of the same molecule?
**A.** Non-toxic

**Q.** And the concentration at 6 h [24]?
**A.** 15 µM

**Q.** And the IC50 [25]?
**A.** 506 nM

**Q.** And the IC50 [26]?
**A.** 120 nM

**Q.** And the IC50 [27]?
**A.** 363 nM
